# Test results taken from ChEMBL document CHEMBL1275354, “Anticonvulsant activity of 2,4(1H)-diarylimidazoles in mice and rats acute seizure models” (Bioorg Med Chem, 2010).
# Activity calls are given as the source filed them. The calls are words filed in the database; no cut-off is given here.
# Tests used:
# Mus musculus [1] = test: Neurotoxicity in ip dosed albino CF1 mouse assessed as minimum dose required to cause toxicity after 0.5 hrs by rotarod test; format: organism-based; settings: in vivo
# Mus musculus [2] = test: Neurotoxicity in albino CF1 mouse assessed as minimal motor impairment at 30 mg/kg, ip after 0.5 hrs by rotarod test; format: toxicity, organism-based; design: dose 30 mg/kg, route intraperitoneal; settings: in vivo
# Mus musculus [3] = test: Anticonvulsant activity in albino CF1 mouse assessed as protection against maximal electroshock-induced seizures at 100 mg/kg, ip after 0.5 hrs; format: functional, organism-based; design: dose 100 mg/kg
# Mus musculus [4] = test: Anticonvulsant activity against subcutaneous metrazole-induced seizures in ip dosed albino CF1 mouse assessed as minimum effective dose after 4 hrs; format: functional; settings: albino CF1, 4 h, read-out: MED
# Mus musculus [5] = test: Neurotoxicity in albino CF1 mouse assessed as minimal motor impairment at 30 mg/kg, ip after 4 hrs by rotarod test; format: toxicity, organism-based; design: dose 30 mg/kg, route intraperitoneal; settings: in vivo
# Mus musculus [6] = test: Neurotoxicity in albino CF1 mouse assessed as minimal motor impairment at 100 mg/kg, ip after 0.5 hrs by rotarod test; format: toxicity, organism-based; design: dose 100 mg/kg, route intraperitoneal; settings: in vivo
# Mus musculus [7] = test: Neurotoxicity in albino CF1 mouse assessed as minimal motor impairment at 100 mg/kg, ip after 4 hrs by rotarod test; format: toxicity, organism-based; design: dose 100 mg/kg, route intraperitoneal; settings: in vivo
# Mus musculus [8] = test: Neurotoxicity in albino CF1 mouse assessed as minimal motor impairment at 300 mg/kg, ip after 4 hrs by rotarod test; format: toxicity, organism-based; design: dose 300 mg/kg, route intraperitoneal; settings: in vivo
# Mus musculus [9] = test: Anticonvulsant activity in albino CF1 mouse assessed as protection against maximal electroshock-induced seizures at 100 mg/kg, ip after 2 hrs; format: functional, organism-based; design: dose 100 mg/kg
# Mus musculus [10] = test: Anticonvulsant activity in albino CF1 mouse assessed as protection against maximal electroshock-induced seizures at 100 mg/kg, ip after 4 hrs; format: functional, organism-based; design: dose 100 mg/kg
# Mus musculus [11] = test: Anticonvulsant activity in albino CF1 mouse assessed as protection against maximal electroshock-induced seizures at 300 mg/kg, ip after 0.5 hrs; format: functional, organism-based; design: dose 300 mg/kg
# Mus musculus [12] = test: Anticonvulsant activity in albino CF1 mouse assessed as protection against maximal electroshock-induced seizures at 300 mg/kg, ip after 4 hrs; format: functional, organism-based; design: dose 300 mg/kg
# Mus musculus [13] = test: Anticonvulsant activity in albino CF1 mouse assessed as protection against subcutaneous metrazole-induced seizures at 30 mg/kg, ip after 0.5 hrs; format: functional, organism-based; design: dose 30 mg/kg
# Mus musculus [14] = test: Anticonvulsant activity in albino CF1 mouse assessed as protection against subcutaneous metrazole-induced seizures at 30 mg/kg, ip after 4 hrs; format: functional, organism-based; design: dose 30 mg/kg
# Mus musculus [15] = test: Anticonvulsant activity in albino CF1 mouse assessed as protection against subcutaneous metrazole-induced seizures at 100 mg/kg, ip after 0.5 hrs; format: functional, organism-based; design: dose 100 mg/kg
# Mus musculus [16] = test: Anticonvulsant activity in albino CF1 mouse assessed as protection against subcutaneous metrazole-induced seizures at 100 mg/kg, ip after 4 hrs; format: functional, organism-based; design: dose 100 mg/kg
# Mus musculus [17] = test: Anticonvulsant activity in albino CF1 mouse assessed as protection against subcutaneous metrazole-induced seizures at 300 mg/kg, ip after 0.5 hrs; format: functional, organism-based; design: dose 300 mg/kg
# Mus musculus [18] = test: Anticonvulsant activity in albino CF1 mouse assessed as protection against subcutaneous metrazole-induced seizures at 300 mg/kg, ip after 4 hrs; format: functional, organism-based; design: dose 300 mg/kg
# Mus musculus [19] = test: Neurotoxicity in albino CF1 mouse assessed as minimal motor impairment at 30 to 300 mg/kg, po after 4 hrs by rotarod test; format: toxicity, organism-based; design: dose 30-300 mg/kg, route oral; settings: in vivo
# Mus musculus [20] = test: Anticonvulsant activity in albino CF1 mouse assessed as protection against maximal electroshock-induced seizures at 30 mg/kg, ip after 0.5 hrs; format: functional, organism-based; design: dose 30 mg/kg
# Mus musculus [21] = test: Anticonvulsant activity in albino CF1 mouse assessed as protection against maximal electroshock-induced seizures at 30 mg/kg, ip after 4 hrs; format: functional, organism-based; design: dose 30 mg/kg
# Mus musculus [22] = test: Neurotoxicity in ip dosed albino CF1 mouse assessed as minimum dose required to cause toxicity after 4 hrs by rotarod test; format: organism-based; settings: in vivo
# Mus musculus [23] = test: Anticonvulsant activity against maximal electroshock-induced seizures in ip dosed albino CF1 mouse assessed as minimum effective dose after 0.5 hrs; format: functional; settings: read-out: MED
# Mus musculus [24] = test: Anticonvulsant activity against maximal electroshock-induced seizures in ip dosed albino CF1 mouse assessed as minimum effective dose after 4 hrs; format: functional; settings: read-out: MED
# Mus musculus [25] = test: Anticonvulsant activity against subcutaneous metrazole-induced seizures in ip dosed albino CF1 mouse assessed as minimum effective dose after 0.5 hrs; format: functional; settings: albino CF1, 0.5 h, read-out: MED
# Mus musculus [26] = test: Neurotoxicity in albino CF1 mouse assessed as minimal motor impairment at 30 to 300 mg/kg, ip after 0.5 hrs by rotarod test; settings: in vivo
# Rattus norvegicus [27] = test: Neurotoxicity in albino Sprague-Dawley rat assessed as minimal motor impairment at 30 mg/kg, po by rotarod test; format: toxicity, organism-based; design: dose 30 mg/kg, route oral; settings: in vivo
# Rattus norvegicus [28] = test: Anticonvulsant activity in albino Sprague-Dawley rat assessed as protection against maximal electroshock-induced seizures at 30 mg/kg, po after 0.25 hrs; format: functional, organism-based; design: dose 30 mg/kg
# Rattus norvegicus [29] = test: Anticonvulsant activity in albino Sprague-Dawley rat assessed as protection against maximal electroshock-induced seizures at 30 mg/kg, po after 0.5 hrs; format: functional, organism-based; design: dose 30 mg/kg
# Rattus norvegicus [30] = test: Anticonvulsant activity in albino Sprague-Dawley rat assessed as protection against maximal electroshock-induced seizures at 30 mg/kg, po after 1 hr; format: functional, organism-based; design: dose 30 mg/kg
# Rattus norvegicus [31] = test: Anticonvulsant activity in albino Sprague-Dawley rat assessed as protection against maximal electroshock-induced seizures at 30 mg/kg, po after 2 hrs; format: functional, organism-based; design: dose 30 mg/kg
# Rattus norvegicus [32] = test: Anticonvulsant activity in albino Sprague-Dawley rat assessed as protection against maximal electroshock-induced seizures at 30 mg/kg, po after 4 hrs; format: functional, organism-based; design: dose 30 mg/kg
# Mus musculus [33] = test: Neurotoxicity in albino CF1 mouse assessed as minimal motor impairment at 300 mg/kg, ip after 0.5 hrs by rotarod test; format: toxicity, organism-based; design: dose 300 mg/kg, route intraperitoneal; settings: in vivo
Compound,MED (Mus musculus [1]),Activity (Mus musculus [2]),minimal effective dose (Mus musculus [4]),Activity (Mus musculus [5]),Activity (Mus musculus [6]),Activity (Mus musculus [7]),Activity (Mus musculus [8]),Activity (Mus musculus [11]),Activity (Mus musculus [12]),Activity (Mus musculus [13]),Activity (Mus musculus [14]),Activity (Mus musculus [15]),Activity (Mus musculus [16]),Activity (Mus musculus [17]),Activity (Mus musculus [18]),Activity (Mus musculus [20]),Activity (Mus musculus [21]),MED (Mus musculus [22]),minimal effective dose (Mus musculus [23]),minimal effective dose (Mus musculus [24]),other results
FC(F)(F)c1cccc(-c2nc(-c3ccccc3)c[nH]2)c1,100 mg/kg,Non-toxic,> 300 mg/kg,Non-toxic,Non-toxic,Non-toxic,Non-toxic,inactive,Active,inactive,inactive,inactive,inactive,inactive,inactive,inactive,inactive,> 300 mg/kg,> 300 mg/kg,100 mg/kg,Activity (Mus musculus [3]): inactive; Activity (Mus musculus [9]): inactive; Activity (Mus musculus [10]): inactive; Activity (Mus musculus [19]): Non-toxic; minimal effective dose (Mus musculus [25]): > 300 mg/kg; Activity (Mus musculus [26]): Non-toxic
Clc1ccc(-c2c[nH]c(-c3ccccc3)n2)cc1,100 mg/kg,Non-toxic,> 300 mg/kg,Non-toxic,Non-toxic,Non-toxic,Non-toxic,Active,Active,inactive,inactive,inactive,inactive,inactive,inactive,inactive,inactive,> 300 mg/kg,> 30 mg/kg,100 mg/kg,Activity (Mus musculus [3]): Active; Activity (Rattus norvegicus [27]): Non-toxic; Activity (Rattus norvegicus [28]): inactive; Activity (Rattus norvegicus [29]): inactive; Activity (Rattus norvegicus [30]): inactive; Activity (Rattus norvegicus [31]): inactive; Activity (Rattus norvegicus [32]): inactive; Activity (Mus musculus [10]): inactive; Activity (Mus musculus [19]): Non-toxic; minimal effective dose (Mus musculus [25]): > 300 mg/kg; Activity (Mus musculus [26]): Non-toxic
O=[N+]([O-])c1cccc(-c2nc(-c3ccccc3)c[nH]2)c1,> 300 mg/kg,Non-toxic,> 300 mg/kg,Non-toxic,Non-toxic,Non-toxic,Non-toxic,Active,Active,inactive,inactive,inactive,inactive,inactive,inactive,inactive,inactive,> 300 mg/kg,100 mg/kg,100 mg/kg,Activity (Rattus norvegicus [27]): Non-toxic; Activity (Rattus norvegicus [28]): inactive; Activity (Rattus norvegicus [29]): inactive; Activity (Rattus norvegicus [30]): inactive; Activity (Rattus norvegicus [31]): inactive; Activity (Rattus norvegicus [32]): inactive; Activity (Mus musculus [33]): Non-toxic; Activity (Mus musculus [10]): inactive; Activity (Mus musculus [19]): Non-toxic; minimal effective dose (Mus musculus [25]): > 300 mg/kg; Activity (Mus musculus [26]): Non-toxic
COc1ccc(-c2c[nH]c(-c3ccccc3)n2)cc1,100 mg/kg,Non-toxic,> 300 mg/kg,Non-toxic,Non-toxic,Non-toxic,Toxic,Active,Active,inactive,inactive,inactive,inactive,Active,inactive,inactive,inactive,100 mg/kg,> 30 mg/kg,100 mg/kg,Activity (Mus musculus [3]): Active; Activity (Rattus norvegicus [27]): Non-toxic; Activity (Rattus norvegicus [28]): inactive; Activity (Rattus norvegicus [29]): inactive; Activity (Rattus norvegicus [30]): inactive; Activity (Rattus norvegicus [31]): inactive; Activity (Rattus norvegicus [32]): inactive; Activity (Mus musculus [33]): Toxic; minimal effective dose (Mus musculus [25]): 100 mg/kg; Activity (Mus musculus [26]): Non-toxic
O=[N+]([O-])c1cccc(-c2c[nH]c(-c3ccccc3)n2)c1,> 300 mg/kg,Non-toxic,> 300 mg/kg,Non-toxic,Non-toxic,Non-toxic,Non-toxic,Active,Active,inactive,inactive,inactive,inactive,inactive,inactive,inactive,inactive,> 300 mg/kg,100 mg/kg,100 mg/kg,Activity (Rattus norvegicus [27]): Non-toxic; Activity (Rattus norvegicus [28]): inactive; Activity (Rattus norvegicus [29]): inactive; Activity (Rattus norvegicus [30]): inactive; Activity (Rattus norvegicus [31]): inactive; Activity (Rattus norvegicus [32]): inactive; Activity (Mus musculus [33]): Non-toxic; Activity (Mus musculus [10]): inactive; Activity (Mus musculus [19]): Non-toxic; minimal effective dose (Mus musculus [25]): > 300 mg/kg; Activity (Mus musculus [26]): Non-toxic
